We go through two molecules from patent US11939290B2, “Heterocycle-containing amino acid compound and salt thereof, complex, composition, fertilizer and plant growth regulator” (TOKUSHIMA UNIVERSITY, priority 2018, dated 2024).

A short description of this data set: Stability test in acidic aqueous solution (1H NMR residual rate). Particulars: for residual rate, lapsed day 0 / residual rate, lapsed day 10 / residual rate, lapsed day 20 / residual rate, lapsed day 27: acidic aqueous solution in heavy water; for residual rate, lapsed day 0: pH 2.0, 0 day (immediately after preparation); for residual rate, lapsed day 10 / residual rate, lapsed day 20 / residual rate, lapsed day 27: pH 2.0, stored at 25° C. sealed, protected from light; for residual rate, lapsed day 10: 10 days; for residual rate, lapsed day 20: 20 days; for residual rate, lapsed day 27 / stability in an acidic aqueous solution compared with derivatives (X), (X′) and (Y): 27 days; for stability in an acidic aqueous solution compared with derivatives (X), (X′) and (Y): acidic aqueous solution pH 2, 25° C. The format is physicochemical. Here is the method: In this stability test, whether acidic aqueous solutions prepared using the derivatives (X), (X′) and (Y), and 2′-deoxymugineic acid (DMA) and a compound having the following structure (hereinafter, referred to as “PDMA”) were stable along with the lapse of time, i.e., whether the derivatives were difficult to decompose was evaluated.
The following test solutions (a), (b) and (c) were prepared using the derivatives (X), (X′) and (Y). Also, the following test solutions (d) and (e) were prepared using DMA and PDMA. The test solution (a) was prepared by dissolving 3 μmol of the substance in 0.5 mL of heavy water. Other test solutions were prepared by dissolving 0.03 mmol of the substance in 0.5 mL of heavy water. The pH of the test solution was 2. • Test solution (a) for Test Example 1: acidic aqueous solution of the derivative (X) • Test solution (b) for Test Example 2: acidic aqueous solution of the derivative (X′) • Test solution (c) for Test Example 3: acidic aqueous solution of the derivative (Y) • Test solution (d) for Referential Example 1: acidic aqueous solution of DMA • Test solution (e) for Referential Example 2: acidic aqueous solution of PDMA
An NMR measuring tube (manufactured by Kanto Chemical Co., Inc., φ5 mm×7 inch) was filled with each of the test solutions (a) to (e), and ^1H NMR measurement was performed. ^1H NMR was measured immediately after (0 day), 10 days after, 20 days after, and 27 days after the preparation of the test solution. The test solutions were stored at room temperature (25° C.) in a sealed state in which they were placed in the NMR measuring tubes, while being protected from light.
Attention was paid to 4.4 ppm (1H, q) for DMA, 4.4 ppm (1H, q) for PDMA, 4.3 ppm (1H, dd) for the derivative (X), 4.3 ppm (1H, dd) for the derivative (X′), and 4.3 ppm (1H, dd) for the derivative (Y) in the resulting ^1H NMR spectrum. […] On the other hand, in the case of the test solutions (d) and (e), peaks derived from decomposition products of DMA and PDMA were detected with the lapse of the storage time. The chemical shifts of the peaks were 4.5 ppm (t, 1H) for DMA and 4.5 ppm (1H, t) for PDMA. Thus, from the integrated values, the residual rate of DMA or PDMA after 10, 20, and 27 days was calculated based on the following calculation formula (see Table 1 and FIG. 1):
(Integrated value of measured compound)/{(integrated value of measured compound)+(integrated value of decomposition product)}×100

Structures are written as SMILES.

Take `O=C(O)C(O)CCNC(CCN1CCC1C(=O)O)C(=O)O` (stereo not shown) [DMA, 2′-deoxymugineic acid]: the “residual rate, lapsed day 0” value worked out at 100%; the “residual rate, lapsed day 10” value stood at 77.3%; the “residual rate, lapsed day 20” value worked out at 68.2%; the “residual rate, lapsed day 27” value stood at 59.3%. The “stability in an acidic aqueous solution compared with derivatives (X), (X′) and (Y)” value is given as “inferior”.
In the same order, the values of `O=C(O)C(O)CCNC(CCN1CCCC1C(=O)O)C(=O)O` (stereo not shown) [PDMA] are 100%, 68.4%, 61.7%, 55.2% and “inferior”.
